Patent US8012967B2, “Minor groove binders” (University of Strathclyde, priority 2006, dated 2011)
Values after ≈ are worked out from the molar mass of the structure shown. Read-outs that look alike come from different tables or passages of the source.

Columns and labels:
Format in all cases: cell-based
[1] = system: Staphylococcus aureus Strain 1 (BSAC04(1)) (Clinical isolate from Glasgow Royal Infirmary); experiment: MIC, Staphylococcus aureus Strain 1; conditions: Staphylococcus aureus, read-out: Minimum inhibitory concentrations (MICs), S aureus 1
Experimental: The effects of compounds of the invention in relation to inhibiting the growth of various microorganisms was determined using methods known to those skilled in the art, for example in vitro methods as described in J. Med. Chem. 47, 2133-2156 (2004) and in vivo methods as described in J. Med. Microbiol. 46, 208-213 (1997), the disclosures of which documents are hereby incorporated by reference.
In particular, minimum inhibitory concentrations (MICs) against microorganisms (e.g. S. Aureus, Streptococcus faecalis, Aspergillus niger, Candida albicans or Mycobacterium fortuitum) for compounds of the invention may be measured using procedures such as those described in A. J. Drummond and R. D. Waigh “The development of microbiological methods for phytochemical screening” Recent Res. Devel. Phytochem. 4, 143-152 (2000), the disclosures of which document are hereby incorporated by reference.
Sample dilutions were typically prepared by dissolving the test sample (2 mg) in sterile water (10 mL) to provide a working concentration of 200 μg/ml. The test wells on each 96 well microtitre plate were initially inoculated with culture medium (100 μL) using Mueller-Hinton Broth for antibacterial assays and Sabouraud Broth for antifungal assays. A solution of each test sample (100 μL) was added to one row of each plate and a series of doubling dilutions made for successive rows. Incubation was at 37° C. for antibacterial assay and 25° C. for antifungal assay. […] From the observed pattern of colour, the MIC was determined. All tests included sterility and growth controls.

[2] = system: Staphylococcus aureus Strain 2 (NCTC 6571); experiment: MIC, Staphylococcus aureus Strain 2; conditions: for MIC: read-out: Minimum inhibitory concentrations (MICs), S. aureus 2
Experimental: (§1) The effects of compounds of the invention in relation to inhibiting the growth of various microorganisms was determined using methods known to those skilled in the art, for example in vitro methods as described in J. Med. Chem. 47, 2133-2156 (2004) and in vivo methods as described in J. Med. Microbiol. 46, 208-213 (1997), the disclosures of which documents are hereby incorporated by reference. In particular, minimum inhibitory concentrations (MICs) against microorganisms (e.g. S. Aureus, Streptococcus faecalis, Aspergillus niger, Candida albicans or Mycobacterium fortuitum) for compounds of the invention may be measured using procedures such as those described in A. J. Drummond and […] development of microbiological methods for phytochemical screening” Recent Res. Devel. […] The test wells on each 96 well microtitre plate were initially inoculated with culture medium (100 μL) using Mueller-Hinton Broth for antibacterial assays and Sabouraud Broth for antifungal assays. A solution of each test sample (100 μL) was added to one row of each plate and a series of doubling dilutions made for successive rows. Incubation was at 37° C. for antibacterial assay and 25° C. for antifungal assay. […] From the observed pattern of colour, the MIC was determined. All tests included sterility and growth controls.

[3] = system: Streptococcus faecalis (NCTC 775); experiment: MIC, Streptococcus faecalis; conditions: for MIC: read-out: Minimum inhibitory concentrations (MICs), St. faecalis
Experimental: as §1

[4] = system: Aspergillus niger (IMI 1745); experiment: MIC, Aspergillus niger; conditions: for MIC: read-out: Minimum inhibitory concentrations (MICs), A. niger
Experimental: as §1

[5] = system: Candida albicans (NCPF3179); experiment: MIC, Candida albicans; conditions: for MIC: read-out: Minimum inhibitory concentrations (MICs), C. albicans
Experimental: as §1

[6] = value in parentheses, na = not active
[7] = Staphylococcus aureus, NCTC6571, value in parentheses, na = not active
[8] = Staphylococcus aureus, NCTC6571, value outside parentheses
[9] = Enterococcus faecalis, NCTC775, value in parentheses, na = not active
[10] = Enterococcus faecalis, NCTC775, value outside parentheses
[11] = Aspergillus niger, value in parentheses, na = not active
[12] = Aspergillus niger, value outside parentheses
[13] = Candida albicans, NCPF3179, value in parentheses, na = not active
[14] = Candida albicans, NCPF3179, value outside parentheses

Row | MIC [1, 6] | MIC ([1]; value outside parentheses) | MIC [2, 7] | MIC [2, 8] | MIC [3, 9] | MIC [3, 10] | MIC [4, 11] | MIC [4, 12] | SMILES | other results
1 | – | – | 50 µg/mL | 70 µM | 50 µg/mL | 70 µM | 100 µg/mL | 140 µM | CN(C)CCCNC(=O)c1cc(NC(=O)c2cc(NC(=O)c3cc(/C=C/c4ccc([N+](=O)[O-])cc4)cn3C)cn2C)cn1C [Example 8, N-[5-({[5-({[3-(Dimethylamino)propyl]amino}carbonyl)-1-methyl-1H-pyrrol-3-yl]amino}carbonyl)-1-methyl-1H-pyrrol-3-yl]-1-methyl-4-[(E)-2-(4-nitrophenyl)-ethenyl]-1H-pyrrole-2-carboxamide] | –
2 | 4 µg/mL | 4.6 µM | – | – | – | – | – | – | Cn1cc(NC(=O)c2cc(NC(=O)c3cc(/C=C/c4ccc5ccccc5n4)cn3C)cn2C)cc1C(=O)NCCN1CCOCC1 [Example 11, 1-Methyl-N-[1-methyl-5-({[2-(4-morpholinyl)ethyl]amino}carbonyl)-1H-pyrrol-3-yl]-4-[({1-methyl-4-[(E)-2-(2-quinolinyl)ethenyl]-1H-pyrrol-2-yl}carbonyl)-amino]-1H-pyrrole-2-carboxamide] | MIC [5, 13]: 100 µg/mL; MIC [5, 14]: 134 µM
3 | 8 µg/mL | 10 µM | – | – | – | – | – | – | Cn1cc(NC(=O)c2cc(NC(=O)c3csc(/C=C/c4ccc5ccccc5n4)n3)cn2C)cc1C(=O)NCCN1CCOCC1 [Example 12, N-[1-Methyl-5-({[1-methyl-5-({[2-(4-morpholinyl)ethyl]amino}carbonyl)-1H-pyrrol-3-yl]amino}carbonyl)-1H-pyrrol-3-yl]-2-[(E)-2-(2-quinolinyl)ethenyl]-1,3-thiazole-4-carboxamide] | –
4 | – | – | 50 µg/mL | 68 µM | 100 µg/mL | 136 µM | 100 µg/mL | 136 µM | Cn1cc(NC(=O)c2cc(NC(=O)c3ccc(/C=C/c4ccc5ccccc5c4)cc3)cn2C)cc1C(=O)NCCN1CCOCC1 [Example 13, 1-Methyl-N-[1-methyl-5-({[2-(4-morpholinyl)ethyl]amino}carbonyl)-1H-pyrrol-3-yl]-4-({4-[(E)-2-(2-naphthyl)ethenyl]benzoyl}amino)-1H-pyrrole-2-carboxamide] | –
5 | – | – | – | – | – | – | 100 µg/mL | 122 µM | CC(C)CCc1sc(NC(=O)c2cc(NC(=O)c3ccc(/C=C/c4ccc5ccccc5n4)cc3)cn2C)nc1C(=O)NCCN1CCOCC1 [Example 19, 5-Isopentyl-2-({[1-methyl-4-({4-[(E)-2-(2-quinolinyl)ethenyl]benzoyl}amino)-1H-pyrrol-2-yl]carbonyl}amino)-N-[2-(4-morpholinyl)ethyl]-1,3-thiazole-4-carboxamide] | –

The remaining lines, values behind:

Row | SMILES | MIC [1, 6] | MIC ([1]; value outside parentheses) | MIC [2, 7] | MIC [2, 8] | MIC [3, 9] | MIC [3, 10] | MIC [4, 11] | MIC [4, 12] | other results
6 | COc1cccc(/C=C/c2ccc(C(=O)Nc3cc(C(=O)Nc4cc(C(=O)NCCN5CCOCC5)n(C)c4)n(C)c3)cc2)c1 [Example 1, 4-({[4-({4-[(E)-2-(3-Methoxyphenyl)ethenyl]benzoyl}amino)-1-methyl-1H-pyrrol-2-yl]carbonyl}amino)-1-methyl-N-[2-(4-morpholinyl)ethyl]-1H-pyrrole-2-carboxamide] | 2 µg/mL | 2.7 µM | 8 µg/mL | 11 µM | 50 µg/mL | 69 µM | 100 µg/mL | 138 µM | –
7 | Cn1cccc1/C=C/c1ccc(C(=O)Nc2cc(C(=O)Nc3cc(C(=O)NCCN4CCOCC4)n(C)c3)n(C)c2)cc1 [Example 3, 1-Methyl-N-[1-methyl-5-({[2-(4-morpholinyl)ethyl]amino}carbonyl)-1H-pyrrol-3-yl]-4-({4-[(E)-2-(1-methyl-1H-pyrrol-2-yl)ethenyl]benzoyl}amino)-1H-pyrrole-2-carboxamide] | 4 µg/mL | 5.7 µM | 16 µg/mL | 22.9 µM | 12.5 µg/mL | 16.4 µM | 100 µg/mL | 143 µM | –
8 | COc1cccc(/C=C/c2ccc(C(=O)Nc3cc(C(=O)Nc4cc(C(=O)NCCCN(C)C)n(C)c4)n(C)c3)cc2)c1 [Example 4, N-[5-({[3-(Dimethylamino)propyl]amino}carbonyl)-1-methyl-1H-pyrrol-3-yl]-4-({4-[(E)-2-(3-methoxyphenyl)ethenyl]benzoyl}amino)-1-methyl-1H-pyrrole-2-carboxamide] | 6.25 µg/mL | 8.9 µM | 12.5 µg/mL | 17.9 µM | – | – | 50 µg/mL | 72 µM | MIC [5, 13]: 100 µg/mL; MIC [5, 14]: 143 µM
9 | CN(C)CCCNC(=O)c1cc(NC(=O)c2cc(NC(=O)c3ccc(/C=C/c4cnc5ccccc5c4)cc3)cn2C)cn1C [Example 5, N-[5-({[3-(Dimethylamino)propyl]amino}carbonyl)-1-methyl-1H-pyrrol-3-yl]-1-methyl-4-({4-[(E)-2-(3-quinolinyl)ethenyl]benzoyl}amino)-1H-pyrrole-2-carboxamide] | 25 µg/mL | 35 µM | 25 µg/mL | 35 µM | 50 µg/mL | 70 µM | 50 µg/mL | 70 µM | –
10 | COc1cccc(/C=C/c2cccc(C(=O)Nc3cc(C(=O)Nc4cc(C(=O)NCCCN(C)C)n(C)c4)n(C)c3)c2)c1 [Example 6] | – | – | – | – | – | – | – | – | Minimum inhibitory concentrations (MICs), S. aureus 2 [2, 6]: 50 µg/mL (≈ 85.8 µM); MIC ([2]; value outside parentheses): 72 µM; Minimum inhibitory concentrations (MICs), St. faecalis [3, 6]: 50 µg/mL (≈ 85.8 µM); MIC ([3]; value outside parentheses): 72 µM; Minimum inhibitory concentrations (MICs), A. niger [4, 6]: 100 µg/mL (≈ 172 µM); MIC ([4]; value outside parentheses): 143 µM
11 | CN(C)CCCNC(=O)c1cc(NC(=O)c2cc(NC(=O)c3ccc(/C=C/c4ccncc4)cc3)cn2C)cn1C [Example 7, N-[5-({[3-(Dimethylamino)propyl]amino}carbonyl)-1-methyl-1H-pyrrol-3-yl]-1-methyl-4-({4-[(E)-2-(4-pyridinyl)ethenyl]benzoyl}amino)-1H-pyrrole-2-carboxamide] | 16 µg/mL | 24 µM | 50 µg/mL | 75 µM | 25 µg/mL | 37 µM | – | – | –
12 | Cn1cc(NC(=O)c2cc(NC(=O)c3ccc(/C=C/c4cc5ccccc5nc4On4nnc5ccccc54)cc3)cn2C)cc1C(=O)NCCN1CCOCC1 [Example 14, 4-[(4-{(E)-2-[2-(1H-1,23-Benzotriazol-1-yloxy)-3-quinolinyl]ethenyl}benzoyl)-amino]-1-methyl-N-[1-methyl-5-({[2-(4-morpholinyl)ethyl]amino}carbonyl)-1H-pyrrol-3-yl]-1H-pyrrole-2-carboxamide] | – | – | – | – | – | – | – | – | Minimum inhibitory concentrations (MICs), S. aureus 2 [2, 6]: 50 µg/mL (≈ 65.4 µM); MIC ([2]; value outside parentheses): 57 µM; Minimum inhibitory concentrations (MICs), St. faecalis [3, 6]: 100 µg/mL (≈ 131 µM); MIC ([3]; value outside parentheses): 114 µM; Minimum inhibitory concentrations (MICs), C. albicans [5, 6]: 100 µg/mL (≈ 131 µM); MIC ([5]; value outside parentheses): 114 µM; Minimum inhibitory concentrations (MICs), A. niger [4, 6]: 50 µg/mL (≈ 65.4 µM); MIC ([4]; value outside parentheses): 57 µM
13 | Cn1cc(NC(=O)c2cc(NC(=O)c3ccc(/C=C/c4ccc5ccccc5n4)cc3)cn2C)cc1C(=O)NCCN1CCOCC1 [Example 15] | – | – | – | – | – | – | – | – | Minimum inhibitory concentrations (MICs), S. aureus 2 [2, 6]: 100 µg/mL (≈ 158 µM); MIC ([2]; value outside parentheses): 134 µM; Minimum inhibitory concentrations (MICs), C. albicans [5, 6]: 100 µg/mL (≈ 158 µM); MIC ([5]; value outside parentheses): 134 µM; Minimum inhibitory concentrations (MICs), A. niger [4, 6]: 100 µg/mL (≈ 158 µM); MIC ([4]; value outside parentheses): 134 µM
